Assay results: patent publication US20220220373A1, “FLUORESCENT PROBES FOR MONOACYLGLYCEROL LIPASE (MAGL)” (Hoffmann-La Roche Inc., priority 2019, published 2022)

The compounds below were run against T1, MAGL (Homo sapiens, UniProt Q99685) (assay: 2-AG assay (MAGL inhibitory activity, hydrolysis of 2-arachidonoylglycerol followed by mass spectrometry)). Conditions: 50 pM MAGL, 8 μM 2-arachidonoylglycerol, 15 min pre-incubation, 30 min incubation at RT.
T1 sequence (Q99685 1-303): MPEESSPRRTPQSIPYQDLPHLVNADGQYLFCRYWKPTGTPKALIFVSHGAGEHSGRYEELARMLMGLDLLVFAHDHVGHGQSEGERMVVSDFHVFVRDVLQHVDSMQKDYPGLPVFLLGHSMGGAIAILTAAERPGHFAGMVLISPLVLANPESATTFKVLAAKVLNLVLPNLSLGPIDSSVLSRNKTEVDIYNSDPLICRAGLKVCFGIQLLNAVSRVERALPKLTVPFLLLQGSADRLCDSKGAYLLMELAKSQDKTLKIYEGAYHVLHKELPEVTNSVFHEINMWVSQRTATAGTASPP
Assay type: biochemical
Method: Compounds were profiled for MAGL inhibitory activity by determining the enzymatic activity by following the hydrolysis of the natural substrate 2-arachidonoylglycerol (2-AG) resulting in arachidonic acid, which can be followed by mass spectrometry. This assay is hereinafter abbreviated “2-AG assay”.
The 2-AG assay was carried out in 384 well assay plates (PP, Greiner Cat#784201) in a total volume of 20 μL. Compound dilutions were made in 100% DMSO (VWR Chemicals 23500.297) in a polypropylene plate in 3-fold dilution steps to give a final concentration range in the assay from 12.5 μM to 0.8 pM. […] compound dilutions (100% DMSO) were added to 9 μL MAGL in assay buffer (50 mM TRIS (GIBCO, 15567-027), 1 mM EDTA (Fluka, 03690-100 mL), 0.01% (v/v) Tween. After shaking, the plate was incubated for 15 min at RT. To start the reaction, 10 μL 2-arachidonoylglycerol in assay buffer was added. The final concentrations in the assay was 50 pM MAGL and 8 μM 2-arachidonoylglyerol. After shaking and 30 min incubation at RT, the reaction was quenched by the addition of […] of ACN containing 4 μM of d8-arachidonic acid. The amount of arachidonic acid was traced by an online SPE system (Agilent Rapidfire) coupled to a triple quadrupole mass spectrometer (Agilent 6460). A C18 SPE cartridge (G9205A) was used in an ACN/water liquid setup. The mass spectrometer was operated in negative electrospray mode following the mass transitions 303.1→259.1 for arachidonic acid and 311.1→267.0 for d8-arachidonic acid. The activity of the compounds was calculated based on the ratio of intensities [arachidonic acid/d8-arachidonic acid].

IC50 [nM] | SMILES
0.3 | CC(C)(C)OC(=O)NCCOc1cccc(C(c2ccccc2)C2CCN(C(=O)N3CC[C@@H]4OCC(=O)N[C@@H]4C3)CC2)c1 (single isomer, unassigned) [Example 4, tert-Butyl N-[2-[3-[(R or S)-[1-[(4aR,8aS)-3-oxo-4,4a,5,7,8,8a-hexahydropyrido[4,3-b][1,4]oxazine-6-carbonyl]-4-piperidyl]-phenyl-methyl]phenoxy]ethyl]carbamate]
0.2 | CC(C)(C)OC(=O)NCCOc1cccc(C(c2ccccc2)C2CCN(C(=O)N3CC[C@@H]4OCC(=O)N[C@@H]4C3)CC2)c1 (single isomer, unassigned) [Example 5, tert-Butyl N-[2-[3-[(S or R)-[1-[(4aR,8aS)-3-oxo-4,4a,5,7,8,8a-hexahydropyrido[4,3-b][1,4]oxazine-6-carbonyl]-4-piperidyl]-phenyl-methyl]phenoxy]ethyl]carbamate]
5.3 | NCCOc1cccc(C(c2ccccc2)C2CCN(C(=O)N3CC[C@@H]4OCC(=O)N[C@@H]4C3)CC2)c1 (single isomer, unassigned) [Example 6, (4aR,8aS)-6-[4-[(S or R)-[3-(2-Aminoethoxy)phenyl]-phenyl-methyl]piperidine-1-carbonyl]-4,4a,5,7,8,8a-hexahydropyrido[4,3-b][1,4]oxazin-3-one]
48.5 | NCCOc1cccc(C(c2ccccc2)C2CCN(C(=O)N3CC[C@@H]4OCC(=O)N[C@@H]4C3)CC2)c1 (single isomer, unassigned) [Example 7, (4aR,8aS)-6-[4-[(R or S)-[3-(2-Aminoethoxy)phenyl]-phenyl-methyl]piperidine-1-carbonyl]-4,4a,5,7,8,8a-hexahydropyrido[4,3-b][1,4]oxazin-3-one]

Further lines, the compound ahead of its results:

SMILES | IC50 [nM]
CC(C)(C)OC(=O)NCCOCCOCCC(=O)NCCOc1cccc([C@H](c2ccccc2)C2CCN(C(=O)N3CC[C@@H]4OCC(=O)N[C@@H]4C3)CC2)c1 (single isomer, unassigned) [Example 8, tert-Butyl N-[2-[2-[3-[2-[3-[(S or R)-11-1(4aR,8aS)-3-oxo-4,4a,5,7,8,8a-hexahydropyrido[4,3-b][1,4]oxazine-6-carbonyl]-4-piperidyl]-phenyl-methyl]phenoxy]ethylamino]-3-oxo-propoxy]ethoxy]ethyl]carbamate] | 1.5
CC(C)(C)OC(=O)NCCOCCOCCC(=O)NCCOc1cccc(C(c2ccccc2)C2CCN(C(=O)N3CC[C@@H]4OCC(=O)N[C@@H]4C3)CC2)c1 (single isomer, unassigned) [Example 9, tert-Butyl N-[2-[2-[3-[2-[3-[(R or S)-[1-[(4aR,8aS)-3-oxo-4,4a,5,7,8,8a-hexahydropyrido[4,3-b][1,4]oxazine-6-carbonyl]-4-piperidyl]-phenyl-methyl]phenoxy]ethylamino]-3-oxo-propoxy]ethoxy]ethyl]carbamate] | 2.6
NCCOCCOCCC(=O)NCCOc1cccc(C(c2ccccc2)C2CCN(C(=O)N3CC[C@@H]4OCC(=O)N[C@@H]4C3)CC2)c1 (single isomer, unassigned) [Example 10, N-[2-[3-[(R or S)-[1-[(4aR,8aS)-3-Oxo-4,4a,5,7,8,8a-hexahydropyrido[4,3-b][1,4]oxazine-6-carbonyl]-4-piperidyl]-phenyl-methyl]phenoxy]ethyl]-3-[2-(2-aminoethoxy)ethoxy]propanamide] | 7.8
NCCOCCOCCC(=O)NCCOc1cccc(C(c2ccccc2)C2CCN(C(=O)N3CC[C@@H]4OCC(=O)N[C@@H]4C3)CC2)c1 (single isomer, unassigned) [Example 11, N-[2-[3-[(S or R)-[1-[(4aR,8aS)-3-Oxo-4,4a,5,7,8,8a-hexahydropyrido[4,3-b][1,4]oxazine-6-carbonyl]-4-piperidyl]-phenyl-methyl]phenoxy]ethyl]-3-[2-(2-aminoethoxy)ethoxy]propanamide] | 2930
